Data on 4 compounds can be found in paper PMC7553777, “Structural basis for the reaction cycle of DASS dicarboxylate transporters” (eLife, 2020).

Read-outs that look alike come from different tables or passages of the source.

Test [1] has as its target T1, LaINDY (Lactobacillus acidophilus, UniProt Q5FKK5).
T1 construct: gene LBA0912
In words: thermostability, SEC peak height after […] h at […] °C. The class given is binding.

In test [2] the target is T1, LaINDY. Description: whole-cell radiolabelled uptake and exchange in E. coli BL21(DE3). The class given is cell-based. The following applies: 1 μM 3H-succinate, labelled compound, pH 7.5, 30 °C, 10 mM NaCl.
Test [3] addresses LaINDY, succinate/dicarboxylate transporter from Lactobacillus acidophilus (Lactobacillus acidophilus). In words: cryo-EM structure.
The target is the same in test [4]. Description: crystal structure.
The target is the same in test [5]. In words: SEC-MALS; Shodex KW803 column, buffer with 0.05% DDM, three angle static light scattering, refractive index and UV detectors; detergent-purified LaINDY.

T1 sequence (Q5FKK5 1-488 limits assumed): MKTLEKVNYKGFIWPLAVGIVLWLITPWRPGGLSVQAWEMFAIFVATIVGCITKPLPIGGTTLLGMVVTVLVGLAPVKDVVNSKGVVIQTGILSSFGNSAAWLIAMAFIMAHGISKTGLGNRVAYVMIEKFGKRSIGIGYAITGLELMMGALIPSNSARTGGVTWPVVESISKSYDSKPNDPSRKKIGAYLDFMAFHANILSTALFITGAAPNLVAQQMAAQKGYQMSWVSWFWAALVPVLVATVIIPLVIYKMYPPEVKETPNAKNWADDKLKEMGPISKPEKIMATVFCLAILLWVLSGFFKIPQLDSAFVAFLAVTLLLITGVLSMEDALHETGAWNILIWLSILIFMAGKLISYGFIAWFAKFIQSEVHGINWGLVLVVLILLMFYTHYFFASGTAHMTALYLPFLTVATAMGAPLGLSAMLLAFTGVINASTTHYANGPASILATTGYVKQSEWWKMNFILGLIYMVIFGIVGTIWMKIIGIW

For `O=C(O)CCC(=O)C(=O)O` [αKG], the “thermostability, SEC peak height after 2 h at 42 °C” value at LaINDY [1] (pH 8.0, 150 mM NaCl, 0.15% DM, 100 mM compound as printed) is “Following identification of malate and αKG as stabilizers”.

As for `O=C(O)CCC(=O)O` [succinate], at LaINDY [2], the “whole-cell radiolabelled uptake and exchange in E. coli BL21(DE3)” value is given as “E. coli transformed with LaINDY accumulated radioactive succinate from an external solution”.

In general, stoichiometry N refers to a count of units in the complex or per binding partner. “LaINDY, succinate/dicarboxylate transporter from Lactobacillus acidophilus (natural protein)”: the stoichiometry N in test [3], in test [4] and in test [5] was 2 each time.

`O=C(O)CC(O)C(=O)O` (racemic) [malate]: on LaINDY [1], the “thermostability, SEC peak height after 2 h at 42 °C” value is “Following identification of malate and αKG as stabilizers”.
